Test results as given in the NIST ThermoML archive (doi:10.1016/j.jct.2008.12.011).

Columns and labels:
[1] = mn = molality of the nth substance listed, in mol/kg; details: 101 kPa, Liquid, Vibrating tube method
[2] = cn = amount concentration of the nth substance listed, in mol/dm3; details: 101.3 kPa, Liquid, Vibrating tube method

O=S(=O)(O)CC(O)CNC(CO)(CO)CO (configuration not stated) + O
mass density [kg/m3], [1]
Details | 298.15 K | 303.15 K | 310.15 K | 318.15 K | 323.15 K | 328.15 K
m1 = 0.0629 | 1003.59 | 1002.16 | 999.78 | 996.62 | 994.41 | 992.05
m1 = 0.123 | 1009.62 | 1008.14 | 1005.72 | 1002.52 | 1000.3 | 997.92
m1 = 0.1921 | 1016.37 | 1014.86 | 1012.39 | 1009.15 | 1006.89 | 1004.5
m1 = 0.4659 | 1041.93 | 1040.26 | 1037.6 | 1034.18 | 1031.71 | 1028.8
m1 = 0.7644 | 1069.04 | 1066.83 | 1063.04 | 1059.95 | 1056.86 | 1054.93

O=S(=O)(O)CCCNC(CO)(CO)CO [3-[tris(hydroxymethyl)methylamino]-1-propanesulfonic acid] + O
mass density [kg/m3], [1]
Details | m1 = 0.5011 | m1 = 0.8957 | m1 = 1.224 | m1 = 1.793 | m1 = 2.213 | m1 = 2.423 | m1 = 2.803
298.15 K | 1046.07 | 1064.95 | 1084.21 | 1117.87 | 1140.59 | 1152.07 | 1170.75
303.15 K | 1044.13 | 1062.96 | 1082.18 | 1115.68 | 1138.38 | 1149.81 | 1168.43
310.15 K | 1041.22 | 1059.95 | 1079.15 | 1112.62 | 1135.28 | 1146.62 | 1165.22
318.15 K | 1037.23 | 1055.92 | 1075.09 | 1108.55 | 1131.19 | 1142.49 | 1161.04
323.15 K | 1034.92 | 1053.59 | 1072.68 | 1106.08 | 1128.7 | 1139.98 | 1158.52
328.15 K | 1032.67 | 1051.25 | 1070.31 | 1103.67 | 1126.12 | 1137.32 | 1155.87

[Br-].[K+] [potassium bromide] + O
mass density [kg/m3], [2]
Details | c1 = 1 | c1 = 1.5 | c1 = 2 | c1 = 2.5 | c1 = 3 | c1 = 3.5 | c1 = 4
298.15 K | – | 1119.52 | – | 1199.54 | 1239.34 | 1279.04 | –
303.15 K | 1078.68 | 1117.57 | 1160.04 | 1197.23 | 1236.89 | 1276.29 | 1320.56
308.15 K | 1075.81 | 1114.62 | 1156.73 | 1193.88 | 1233.52 | 1272.28 | 1316.47
313.15 K | 1072.09 | 1110.71 | 1152.65 | 1189.67 | 1229.2 | 1267.53 | 1311.63
318.15 K | 1066.6 | 1106.96 | 1149.76 | 1186.74 | 1226.19 | 1264.46 | 1308.52
323.15 K | 1063.02 | 1102.44 | 1144.45 | 1182.53 | 1222.18 | 1260.51 | 1305.31

[Cl-].[K+] [potassium chloride] + O
mass density [kg/m3], [2]
Details | c1 = 1 | c1 = 1.5 | c1 = 2 | c1 = 2.5 | c1 = 3 | c1 = 3.5 | c1 = 4
298.15 K | – | 1059.97 | – | 1104.2 | 1124.93 | 1145.56 | –
303.15 K | 1041.13 | 1058.12 | 1080.38 | 1102.19 | 1122.78 | 1143.35 | 1166.67
308.15 K | 1038.43 | 1055.31 | 1077.43 | 1099.06 | 1119.56 | 1140.06 | 1163.34
313.15 K | 1035.01 | 1051.75 | 1073.77 | 1095.37 | 1115.79 | 1136.18 | 1159.35
318.15 K | 1032.69 | 1049.38 | 1071.35 | 1092.9 | 1113.28 | 1133.63 | 1156.76
323.15 K | 1030.24 | 1047.03 | 1068.81 | 1090.34 | 1110.71 | 1131.02 | 1154.1

CC(=O)[O-].[K+] [potassium ethanoate] + O
mass density [kg/m3], [2]
Details | c1 = 1 | c1 = 1.5 | c1 = 2 | c1 = 2.5 | c1 = 3 | c1 = 3.5 | c1 = 4
298.15 K | – | 1066.61 | – | 1108.88 | 1127.48 | 1148.72 | –
303.15 K | 1041.9 | 1064.76 | 1086.01 | 1106.89 | 1125.37 | 1146.49 | 1168.58
308.15 K | 1039.27 | 1062.94 | 1083.09 | 1103.93 | 1122.15 | 1143.14 | 1165.13
313.15 K | 1035.88 | 1059.39 | 1079.44 | 1100.19 | 1118.3 | 1139.19 | 1160.96
318.15 K | 1033.57 | 1057.02 | 1077.01 | 1097.66 | 1115.71 | 1136.58 | 1158.26
323.15 K | 1030.82 | 1054.37 | 1074.47 | 1095.05 | 1113.05 | 1133.87 | 1155.47

[Cl-].[Na+] [sodium chloride] + O
mass density [kg/m3], [2]
Details | c1 = 1 | c1 = 1.5 | c1 = 2 | c1 = 2.5 | c1 = 3 | c1 = 3.5 | c1 = 4
298.15 K | – | 1053.3 | – | 1088.97 | 1110.22 | 1124.82 | –
303.15 K | 1035.38 | 1055.01 | 1073.49 | 1086.83 | 1107.87 | 1122.4 | 1146.3
308.15 K | – | 1053.06 | 1070.4 | 1083.71 | 1104.62 | 1118.95 | 1142.7
313.15 K | 1029.13 | 1050.21 | 1066.6 | 1079.83 | 1100.67 | 1114.84 | 1138.45
318.15 K | 1026.75 | 1046.65 | 1064.11 | 1077.28 | 1098.06 | 1112.16 | 1135.7
323.15 K | 1023.15 | 1044.21 | 1061.5 | 1074.62 | 1095.35 | 1109.38 | 1132.89
